The record followed here is ChEMBL document CHEMBL1201862, “PubChem BioAssay data set” (2004).

Active and inactive are the calls of the source. Unless noted, the calls are words filed in the database; no cut-off is given here. Bounds are passed on as bounds.

What all share (format): functional
Experiment [1] deals with Metabotropic glutamate receptor 1 (Rattus norvegicus, UniProt P23385). As to the kind of experiment: Modulation of the Metabotropic Glutamate Receptor mGluR4: Selectivity at mGluR1. [Related pubchem assays (depositor defined):AID2437, AID2807].
For experiment [2], the target named is T1, Metabotropic glutamate receptor 4 (Rattus norvegicus, UniProt P31423). As to the kind of experiment: Modulation of the Metabotropic Glutamate Receptor mGluR4: Selectivity at mGluR4. [Related pubchem assays (depositor defined):AID2437, AID2807].
Experiment [3] deals with Metabotropic glutamate receptor 5 (Rattus norvegicus, UniProt P31424). The experiment in a line: Modulation of the Metabotropic Glutamate Receptor mGluR4: Selectivity at mGluR5. [Related pubchem assays (depositor defined):AID2437, AID2807].
Experiment [4] concerns the target Metabotropic glutamate receptor 8 (Rattus norvegicus, UniProt P70579). The experiment in a line: Modulation of the Metabotropic Glutamate Receptor mGluR4: Selectivity at mGluR8. [Related pubchem assays (depositor defined):AID2437, AID2807].
Experiment [5] addresses T1, Metabotropic glutamate receptor 4. As to the kind of experiment: Modulation of the Metabotropic Glutamate Receptor mGluR4: Rat PAM Potency. [Related pubchem assays (depositor defined):AID2437, AID2807].
In experiment [6] the target is Metabotropic glutamate receptor 7 (Rattus norvegicus, UniProt P35400). As to the kind of experiment: Modulation of the Metabotropic Glutamate Receptor mGluR4: Selectivity at mGluR7. [Related pubchem assays (depositor defined):AID2437, AID2807].
The target of experiment [7] is Metabotropic glutamate receptor 2 (Rattus norvegicus, UniProt P31421). As to the kind of experiment: mGluR2 modulation, off-target check – cell-based, rat, selectivity assay for mGluR4 modulator project (AID 2188).
In experiment [8] the target is Metabotropic glutamate receptor 3 (Rattus norvegicus, UniProt P31422). The experiment in a line: Modulation of the Metabotropic Glutamate Receptor mGluR4: Selectivity at mGluR3. [Related pubchem assays (depositor defined):AID2437, AID2807].
The target of experiment [9] is Metabotropic glutamate receptor 6 (Homo sapiens, UniProt O15303). The experiment in a line: Modulation of the Metabotropic Glutamate Receptor mGluR4: Selectivity at mGluR6. [Related pubchem assays (depositor defined):AID2437, AID2807].
For experiment [10], the target named is T2, Mu-type opioid receptor (Homo sapiens, UniProt P35372). The experiment in a line: SAR Analysis of Agonists of the MOR Receptor using an Image-Based Assay - Set 2. [Related pubchem assays (depositor defined):AID1777, AID1785, AID1786, AID1966, AID2133, AID2136, AID2284, AID2285, AID2352].
The target of experiment [11] is T3, Kappa-type opioid receptor (Homo sapiens, UniProt P41145). As to the kind of experiment: SAR analysis of small molecule agonists of the kappa opioid receptor via a luminescent beta-arrestin assay - Set 2. [Related pubchem assays (depositor defined):AID1777, AID1785, AID1786, AID1966, AID2133, AID2136, AID2284, AID449737].
The target of experiment [12] is T4, Delta-type opioid receptor (Homo sapiens, UniProt P41143). As to the kind of experiment: SAR Analysis of Agonists of the DOR Receptor using an Image-Based Assay - Set 2. [Related pubchem assays (depositor defined):AID1777, AID1785, AID1786, AID1966, AID2133, AID2136, AID2284, AID2285, AID2370].
Experiment [13] has as its target T3, Kappa-type opioid receptor. The experiment in a line: SAR analysis of Agonists of the Kappa Opioid Receptor (KOR) using an Image-Based Assay - Set 2. [Related pubchem assays (depositor defined):AID1777, AID1786, AID1966, AID2133, AID2136, AID2284, AID2285, AID2359].
The target of experiment [14] is T3, Kappa-type opioid receptor. As to the kind of experiment: SAR analysis of Antagonists of the Kappa Opioid Receptor (KOR) using an Image-Based Assay - Set 2. [Related pubchem assays (depositor defined):AID1777, AID1785, AID1786, AID1966, AID2133, AID2136, AID2284, AID2285, AID2348].
Experiment [15] deals with T3, Kappa-type opioid receptor. As to the kind of experiment: kappa opioid receptor blockade potency – cell-based, luminescence, set 2, SAR follow-up (AID 2495).
In experiment [16] the target is T2, Mu-type opioid receptor. The experiment in a line: SAR Analysis of Antagonists of the MOR Receptor using an Image-Based Assay - Set 2. [Related pubchem assays (depositor defined):AID1777, AID1785, AID1786, AID1966, AID2133, AID2136, AID2284, AID2285, AID2420].
The target in experiment [17] is T4, Delta-type opioid receptor. The experiment in a line: SAR Analysis of Antagonists of the DOR Receptor using an Image-Based Assay - Set 2. [Related pubchem assays (depositor defined):AID1777, AID1785, AID1786, AID1966, AID2133, AID2136, AID2284, AID2285, AID2357].
The target of experiment [18] is T3, Kappa-type opioid receptor. The experiment in a line: SAR analysis of small molecule agonists of the kappa opioid receptor via a luminescent beta-arrestin assay. [Related pubchem assays (depositor defined):AID1777, AID1786, AID1966, AID2133, AID2136, AID2348, AID2352, AID2357, AID2359, AID2370, AID2420, AID2478, AID2491, AID2492, AID2493, AID2497, AID2498, AID2500, AID449737, AID488822, AID488842].

For experiment [19], the target named is T4, Delta-type opioid receptor. As to the kind of experiment: delta opioid receptor blockers – image-based, SAR follow-up (AID 2357).
For experiment [20], the target named is T4, Delta-type opioid receptor. As to the kind of experiment: DOR agonists, SAR follow-up, image-based (AID 2370).
Experiment [21] has as its target T2, Mu-type opioid receptor. As to the kind of experiment: mu opioid receptor blockers – image-based, SAR follow-up (AID 2420).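 Further: compounds added before stimulation of receptor with agonist DAMGO.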
Experiment [22] has as its target T3, Kappa-type opioid receptor. As to the kind of experiment: kappa opioid receptor activation potency – imaging, image-based, SAR follow-up (AID 2359).
Experiment [23] addresses T3, Kappa-type opioid receptor. The experiment in a line: kappa opioid receptor blockers, image-based, SAR follow-up (AID 2348).
The target in experiment [24] is T2, Mu-type opioid receptor. As to the kind of experiment: mu opioid receptor activators, image-based, SAR follow-up (AID 2352).

T2 sequence (P35372 whole entry): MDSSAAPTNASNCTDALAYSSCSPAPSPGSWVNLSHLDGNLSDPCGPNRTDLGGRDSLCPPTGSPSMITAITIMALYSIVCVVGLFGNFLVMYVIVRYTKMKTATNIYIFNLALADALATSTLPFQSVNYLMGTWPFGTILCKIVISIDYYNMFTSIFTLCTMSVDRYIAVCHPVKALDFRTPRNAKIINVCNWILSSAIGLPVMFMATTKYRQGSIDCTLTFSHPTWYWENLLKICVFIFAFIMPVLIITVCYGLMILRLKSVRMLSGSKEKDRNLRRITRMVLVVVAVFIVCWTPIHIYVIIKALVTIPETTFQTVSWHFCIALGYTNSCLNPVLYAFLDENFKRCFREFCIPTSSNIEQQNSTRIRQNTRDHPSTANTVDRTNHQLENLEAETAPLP
T3 sequence (P41145 whole entry): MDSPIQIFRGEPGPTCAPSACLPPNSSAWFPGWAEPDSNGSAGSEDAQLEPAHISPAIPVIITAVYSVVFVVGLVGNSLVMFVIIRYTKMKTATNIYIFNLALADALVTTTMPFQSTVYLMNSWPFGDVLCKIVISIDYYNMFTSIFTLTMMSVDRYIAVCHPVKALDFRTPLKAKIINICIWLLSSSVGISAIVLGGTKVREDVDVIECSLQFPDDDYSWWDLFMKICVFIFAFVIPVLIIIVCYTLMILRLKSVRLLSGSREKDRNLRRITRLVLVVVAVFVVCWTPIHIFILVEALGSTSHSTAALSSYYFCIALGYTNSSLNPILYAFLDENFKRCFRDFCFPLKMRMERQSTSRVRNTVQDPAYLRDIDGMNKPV
T4 sequence (P41143 whole entry): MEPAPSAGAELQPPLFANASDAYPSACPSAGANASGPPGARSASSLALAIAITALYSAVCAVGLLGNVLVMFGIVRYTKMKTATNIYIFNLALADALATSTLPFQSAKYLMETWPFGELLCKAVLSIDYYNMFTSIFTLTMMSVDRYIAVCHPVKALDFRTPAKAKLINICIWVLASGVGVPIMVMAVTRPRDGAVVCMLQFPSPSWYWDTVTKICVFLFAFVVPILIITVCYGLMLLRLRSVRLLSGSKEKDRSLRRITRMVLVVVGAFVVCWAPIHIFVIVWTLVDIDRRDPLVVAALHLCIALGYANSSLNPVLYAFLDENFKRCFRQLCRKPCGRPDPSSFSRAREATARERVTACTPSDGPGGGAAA
T1 sequence (P31423 whole entry): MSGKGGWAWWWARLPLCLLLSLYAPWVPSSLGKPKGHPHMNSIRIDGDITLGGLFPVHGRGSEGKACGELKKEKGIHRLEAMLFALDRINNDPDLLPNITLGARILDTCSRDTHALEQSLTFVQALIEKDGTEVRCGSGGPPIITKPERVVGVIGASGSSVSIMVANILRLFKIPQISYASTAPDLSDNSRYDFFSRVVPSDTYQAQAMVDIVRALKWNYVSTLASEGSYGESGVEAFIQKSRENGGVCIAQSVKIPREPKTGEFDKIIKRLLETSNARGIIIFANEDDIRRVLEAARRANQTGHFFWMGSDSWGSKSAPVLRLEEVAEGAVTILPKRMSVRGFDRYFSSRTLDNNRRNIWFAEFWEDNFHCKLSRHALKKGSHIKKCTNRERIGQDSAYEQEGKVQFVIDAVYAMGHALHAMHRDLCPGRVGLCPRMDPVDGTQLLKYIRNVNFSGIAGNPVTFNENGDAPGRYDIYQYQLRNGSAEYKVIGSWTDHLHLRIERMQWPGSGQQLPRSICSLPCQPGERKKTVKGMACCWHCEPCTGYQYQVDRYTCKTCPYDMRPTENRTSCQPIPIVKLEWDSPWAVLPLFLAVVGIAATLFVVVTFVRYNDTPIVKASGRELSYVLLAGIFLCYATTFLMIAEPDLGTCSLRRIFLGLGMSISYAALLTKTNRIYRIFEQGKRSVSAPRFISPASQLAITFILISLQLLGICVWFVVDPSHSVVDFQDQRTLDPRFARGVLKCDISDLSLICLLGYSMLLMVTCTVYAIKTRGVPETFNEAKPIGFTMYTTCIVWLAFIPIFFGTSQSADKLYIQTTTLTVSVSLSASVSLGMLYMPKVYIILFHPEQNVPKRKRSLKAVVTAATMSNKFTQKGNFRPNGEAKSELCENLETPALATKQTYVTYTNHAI
Sequence of Metabotropic glutamate receptor 2 (P31421 whole entry): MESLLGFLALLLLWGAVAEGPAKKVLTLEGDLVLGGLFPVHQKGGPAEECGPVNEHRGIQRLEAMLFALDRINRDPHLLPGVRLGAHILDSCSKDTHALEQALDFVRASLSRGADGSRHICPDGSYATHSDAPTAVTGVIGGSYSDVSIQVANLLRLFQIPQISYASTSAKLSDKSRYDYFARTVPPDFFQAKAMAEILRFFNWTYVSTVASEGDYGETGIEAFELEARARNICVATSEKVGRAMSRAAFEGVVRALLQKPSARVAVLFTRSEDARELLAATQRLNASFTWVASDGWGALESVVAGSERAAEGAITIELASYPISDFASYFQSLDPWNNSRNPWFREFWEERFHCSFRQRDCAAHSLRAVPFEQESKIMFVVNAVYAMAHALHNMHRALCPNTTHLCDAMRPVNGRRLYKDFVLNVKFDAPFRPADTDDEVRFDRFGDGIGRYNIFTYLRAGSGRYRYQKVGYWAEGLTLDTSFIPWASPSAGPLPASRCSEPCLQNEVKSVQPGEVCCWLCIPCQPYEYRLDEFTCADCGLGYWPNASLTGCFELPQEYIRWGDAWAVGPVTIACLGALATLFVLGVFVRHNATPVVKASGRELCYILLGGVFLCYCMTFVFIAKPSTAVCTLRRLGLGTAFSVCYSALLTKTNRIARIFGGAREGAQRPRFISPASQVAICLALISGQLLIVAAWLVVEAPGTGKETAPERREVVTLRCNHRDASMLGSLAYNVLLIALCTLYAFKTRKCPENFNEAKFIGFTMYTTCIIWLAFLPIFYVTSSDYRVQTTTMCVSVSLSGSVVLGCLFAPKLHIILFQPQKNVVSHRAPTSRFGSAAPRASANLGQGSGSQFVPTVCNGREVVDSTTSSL
Sequence of Metabotropic glutamate receptor 6 (O15303 whole entry): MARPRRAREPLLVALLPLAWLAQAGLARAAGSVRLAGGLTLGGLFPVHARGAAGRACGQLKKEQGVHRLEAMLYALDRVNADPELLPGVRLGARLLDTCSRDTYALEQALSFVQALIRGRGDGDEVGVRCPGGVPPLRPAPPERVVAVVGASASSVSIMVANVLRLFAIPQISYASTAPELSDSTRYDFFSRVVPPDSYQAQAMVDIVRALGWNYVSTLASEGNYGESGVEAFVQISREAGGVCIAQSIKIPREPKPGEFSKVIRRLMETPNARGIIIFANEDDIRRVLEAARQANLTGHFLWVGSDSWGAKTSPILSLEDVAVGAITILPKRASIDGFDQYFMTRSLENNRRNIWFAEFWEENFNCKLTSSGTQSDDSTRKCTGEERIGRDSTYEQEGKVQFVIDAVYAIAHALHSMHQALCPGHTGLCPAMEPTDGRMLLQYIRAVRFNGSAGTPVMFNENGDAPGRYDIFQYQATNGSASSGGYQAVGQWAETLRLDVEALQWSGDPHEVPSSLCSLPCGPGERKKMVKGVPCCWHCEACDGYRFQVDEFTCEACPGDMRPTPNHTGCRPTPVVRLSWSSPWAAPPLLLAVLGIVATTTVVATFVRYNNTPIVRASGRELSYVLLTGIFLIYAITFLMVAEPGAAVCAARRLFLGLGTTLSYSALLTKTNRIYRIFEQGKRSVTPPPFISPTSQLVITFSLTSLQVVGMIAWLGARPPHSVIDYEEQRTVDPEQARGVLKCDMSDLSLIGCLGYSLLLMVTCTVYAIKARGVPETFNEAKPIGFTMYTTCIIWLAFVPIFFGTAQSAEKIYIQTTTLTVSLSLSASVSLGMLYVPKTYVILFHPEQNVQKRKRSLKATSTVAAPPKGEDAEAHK
Sequence of Metabotropic glutamate receptor 7 (P35400 whole entry): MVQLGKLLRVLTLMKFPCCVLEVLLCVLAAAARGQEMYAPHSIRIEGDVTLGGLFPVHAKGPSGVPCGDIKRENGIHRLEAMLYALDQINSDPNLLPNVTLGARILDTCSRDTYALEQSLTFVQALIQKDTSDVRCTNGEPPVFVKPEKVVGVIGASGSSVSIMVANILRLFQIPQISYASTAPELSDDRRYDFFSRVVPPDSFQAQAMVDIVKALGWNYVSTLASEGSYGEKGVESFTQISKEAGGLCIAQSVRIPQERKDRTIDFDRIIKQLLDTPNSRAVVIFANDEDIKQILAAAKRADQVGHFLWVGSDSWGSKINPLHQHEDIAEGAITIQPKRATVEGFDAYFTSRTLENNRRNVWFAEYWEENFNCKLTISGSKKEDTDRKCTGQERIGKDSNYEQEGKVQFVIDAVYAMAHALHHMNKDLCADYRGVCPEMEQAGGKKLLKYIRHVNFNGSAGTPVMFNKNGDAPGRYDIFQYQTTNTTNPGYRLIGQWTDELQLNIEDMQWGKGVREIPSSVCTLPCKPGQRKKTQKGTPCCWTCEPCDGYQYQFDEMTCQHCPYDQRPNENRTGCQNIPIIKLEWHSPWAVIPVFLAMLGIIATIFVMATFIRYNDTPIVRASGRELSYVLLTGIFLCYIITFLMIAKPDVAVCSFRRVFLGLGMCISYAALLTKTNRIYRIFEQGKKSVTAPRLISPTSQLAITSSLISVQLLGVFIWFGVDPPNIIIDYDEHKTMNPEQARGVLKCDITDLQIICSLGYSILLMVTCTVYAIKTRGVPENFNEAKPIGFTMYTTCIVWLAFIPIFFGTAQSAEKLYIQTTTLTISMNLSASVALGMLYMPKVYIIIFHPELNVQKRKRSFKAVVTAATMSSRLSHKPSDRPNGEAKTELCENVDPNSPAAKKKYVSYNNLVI

Take `O=C(Nc1cccc(Cl)c1)c1ccccn1`: the EC50 in experiment [1] is 1.17 µM (inactive); in experiment [2], 0.597 µM (active); in experiment [3] it was 1.24 µM (inactive); in [4] it was 9.14 µM (inactive); in experiment [5], 0.295 µM (active); in experiment [7] it was 1.47 µM (inactive). Further, the EC50 is 0.811 µM (inactive) in [8] and 1.25 µM (active) in experiment [9]. The “Activity EC50” value in experiment [6] stood at 163 µM.

Regarding `Cc1cc(C)c(S(=O)(=O)NCc2ccc(C(=O)NCCN3Cc4ccccc4C3)cc2)c(C)c1`, the EC50 in [10] is > 32 µM (inactive); in experiment [11] it was 4.97 µM (active); in [12], > 32 µM (inactive); in [13], > 32 µM (inactive). Moreover, the IC50 in [14] was > 32 µM (inactive); in experiment [15], > 20 µM (inactive); in experiment [16], > 32 µM (inactive); in experiment [17], 13.9 µM (inactive).

On to `O=C(CSc1nnc(-c2ccccn2)n1Cc1ccco1)c1ccc(Cl)cc1`, for which the EC50 in experiment [18] is > 10 µM (inactive); in experiment [20], > 32 µM (inactive); in experiment [22], 7.66 µM (active); in experiment [24], > 32 µM (inactive). Besides, the IC50 in [19], in [21] and in experiment [23] was > 32 µM (inactive) throughout.
